# US20250214942A1, “INHIBITORS OF RECEPTOR INTERACTING PROTEIN KINASE I FOR THE TREATMENT OF DISEASE” (Board of Regents, The University of Texas System, priority 2019, published 2025)
# Read-outs that look alike come from different tables or passages of the source.
# What was measured:
# RIPK1 = RIPK1 (Homo sapiens (Human), UniProt Q13546); assay: ADP-Glo kinase assay (RIPK1 activity, conversion of ATP to ADP); type: biochemical; conditions: 5 nM RIPK1, 50 μM ATP, 6 h reaction, read-out: RIPK1 Enzyme Avg IC50
# Outline: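 ADP-Glo luminescence of ATP-to-ADP conversion by 5 nM RIPK1 with 50 μM ATP (final), 6 h reaction after 10 min compound preincubation at rt. Buffer was 50 mM HEPES pH 7.5, 30 mM MgCl2, 0.05% BSA, 0.02% CHAPS. IC50 from four-parameter logistic fit.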
# [1] = test system: human monocytic cell line U937; assay: Human U937 cellular necroptosis assay (TNFalpha + z-VAD-FMK, Cell Titer-Glo viability); type: cell-based; conditions: U937 cells, 25 ng/mL human TNFalpha + 25 μM z-VAD-FMK, read-out: hU937 Avg IC50
# Outline: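 Cells resuspended in phenol red-free RPMI with 10% FBS, stimulated with 25 ng/mL human TNFalpha plus 25 μM z-VAD-FMK, then given serially diluted compound for 22 h at 37° C, 5% CO2. Viability by Cell Titer-Glo 2.0 luminescence; IC50 from four-parameter logistic fit, averaged across runs.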
# Chain of RIPK1 (Q13546 1-327): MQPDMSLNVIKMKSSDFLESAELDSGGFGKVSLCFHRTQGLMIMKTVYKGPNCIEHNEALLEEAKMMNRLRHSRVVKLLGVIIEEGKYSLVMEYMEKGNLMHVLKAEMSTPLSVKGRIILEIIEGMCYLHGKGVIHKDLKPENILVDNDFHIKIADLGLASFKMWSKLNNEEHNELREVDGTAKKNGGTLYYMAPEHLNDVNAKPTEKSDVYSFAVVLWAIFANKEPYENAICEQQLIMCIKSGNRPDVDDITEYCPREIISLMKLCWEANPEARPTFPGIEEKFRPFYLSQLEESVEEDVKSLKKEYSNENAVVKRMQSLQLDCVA
Compound,IC50 (RIPK1) [nM],IC50 (RIPK1; footnote symbol (a)) [nM],"IC50 ([1]; Homo sapiens, U-937, 22 h) [nM]",IC50 ([1]; 22 h) [nM]
"N#CC1CCN(CC23CC(C(=O)N4N=CCC4c4cc(F)cc(F)c4)(C2)C3)C1 (centres unmarked) [Example 155, 1-((3-(5-(3,5-difluorophenyl)-4,5-dihydro-1H-pyrazole-1-carbonyl)bicyclo[1.1.1]-pentan-1-yl)methyl)-pyrrolidine-3-carbonitrile]",814,,5290,
"1-((3-(5-(3,5-difluorophenyl)-4,5-dihydro-1H-pyrazole-1-carbonyl)bicyclo[1.1.1]-pentan-1-yl)methyl)-1H-benzo[d]imidazole-6-carbonitrile and 1-((3-(5-(3,5-difluorophenyl)-4,5-dihydro-1H-pyrazole-1-carbonyl)bicyclo[1.1.1]-pentan-1-yl)methyl)-1H-benzo[d]imidazole-5-carbonitrile [Example 186]",113,,,682
"N#Cc1cnn(CC23CC(C(=O)N4N=CCC4c4cnccn4)(C2)C3)c1 (centres unmarked) [Example 167, 1-((3-(5-(pyrazin-2-yl)-4,5-dihydro-1H-pyrazole-1-carbonyl)bicyclo[1.1.1]-pentan-1-yl)methyl)-1H-pyrazole-4-carbonitrile]",306,,1880,
"CC(Oc1cc(Cl)ncn1)C12CC(C(=O)N3CC(F)CC3c3cccc(F)c3)(C1)C2 (centres unmarked) [Example 43, (3-(1-((6-Chloropyrimidin-4-yl)oxy)ethyl)bicyclo[1.1.1]pentan-1-yl)(4-fluoro-2-(3-fluorophenyl)pyrrolidin-1-yl)methanone]",1700,,4210,
"N#Cc1cnn2ccn(CC34CC(C(=O)N5N=CCC5c5cc(F)cc(F)c5)(C3)C4)c12 (centres unmarked) [Example 146, 1-((3-(5-(3,5-difluorophenyl)-4,5-dihydro-1H-pyrazole-1-carbonyl)bicyclo[1.1.1]-pentan-1-yl)methyl)-1H-imidazo[1,2-b]pyrazole-7-carbonitrile]",324,,1920,
"O=C(N1N=CCC1c1cc(F)cc(F)c1)C12CC(CN3CCOCC3)(C1)C2 (centres unmarked) [Example 13, (5-(3,5-Difluorophenyl)-4,5-dihydro-1H-pyrazol-1-yl)(3-(morpholinomethyl)bicyclo[1.1.1]pentan-1-yl)methanone]",1510,,,
"O=C(N1N=CCC1c1cc(F)cc(F)c1)C12CC(CN3C(=O)C4(CC4)c4ccccc43)(C1)C2 (centres unmarked) [Example 125, 1′-((3-(5-(3,5-difluorophenyl)-4,5-dihydro-1H-pyrazole-1-carbonyl)-bicyclo[1.1.1]pentan-1-yl)methyl)-spiro[cyclopropane-1,3′-indolin]-2′-one]",2800,,,
"CCOC12CC(C(=O)N3CCCC3c3cccc(C)c3)(C1)C2 (centres unmarked) [Example 122, (3-ethoxybicyclo[1.1.1]-pentan-1-yl)(2-(m-tolyl)-pyrrolidin-1-yl)methanone]",998,,,
"NC(=O)c1cc(OCC23CC(C(=O)N4CC(F)CC4c4cccc(F)c4)(C2)C3)ncn1 (centres unmarked) [Example 98, 6-((3-(4-fluoro-2-(3-fluorophenyl)pyrrolidine-1-carbonyl)bicyclo[1.1.1]-pentan-1-yl)methoxy)-pyrimidine-4-carboxamide]",240,,,
"COC(=O)C12CC(C(=O)NCc3cc(F)cc(F)c3)(C1)C2 [Example 121, methyl 3-((3,5-difluoro-benzyl)carbamoyl)-bicyclo[1.1.1]pentane-1-carboxylate]",,> 50000,,
"O=C(N1N=CCC1c1cc(F)cc(F)c1)C12CC(CN3CC(c4ccccc4)C3)(C1)C2 (centres unmarked) [Example 154, (5-(3,5-difluorophenyl)-4,5-dihydro-1H-pyrazol-1-yl)(3-((3-phenylazetidin-1-yl)-methyl)bicyclo[1.1.1]pentan-1-yl)methanone]",4860,,,
"N#CC12CC(C(=O)N3CCC(Oc4ccccc4)C3)(C1)C2 (centres unmarked) [Example 116, 3-(3-phenoxypyrrolidine-1-carbonyl)bicyclo[1.1.1]-pentane-1-carbonitrile]",,> 50000,,
"N#Cc1cnn(CC23CC(C(=O)N4CC(F)CC4c4cccc(F)c4)(C2)C3)c1 (centres unmarked) [Example 33, 1-((3-(4-Fluoro-2-(3-fluorophenyl)pyrrolidine-1-carbonyl)-bicyclo[1.1.1]pentan-1-yl)methyl)-1H-pyrazole-4-carbonitrile]",466,,,

# Further compounds by falling IC50 (RIPK1), results first:
IC50 (RIPK1) [nM],IC50 (RIPK1; footnote symbol (a)) [nM],Compound,"IC50 ([1]; Homo sapiens, U-937, 22 h) [nM]",IC50 ([1]; 22 h) [nM]
186,,"O=C(N1CC(F)CC1c1cccc(F)c1)C12CC(Cn3ncc4ncccc43)(C1)C2 (centres unmarked) [Example 48, (3-((1H-pyrazolo[4,3-b]pyridin-1-yl)methyl)bicyclo[1.1.1]pentan-1-yl)-(4-fluoro-2-(3-fluorophenyl)pyrrolidin-1-yl)methanone]",1300,
183,,"N#Cc1cccc(OCC23CC(C(=O)N4CC(F)CC4c4cccc(F)c4)(C2)C3)c1 (centres unmarked) [Example 107, 3-((3-(4-fluoro-2-(3-fluoro-phenyl)pyrrolidine-1-carbonyl)bicyclo[1.1.1]-pentan-1-yl)methoxy)-benzonitrile]",,
122,,"N#Cc1cccc2cnn(CC34CC(C(=O)N5N=CCC5c5cc(F)cc(F)c5)(C3)C4)c12 (centres unmarked) [Example 143, 1-((3-(5-(3,5-difluorophenyl)-4,5-dihydro-1H-pyrazole-1-carbonyl)bicyclo[1.1.1]-pentan-1-yl)methyl)-1H-indazole-7-carbonitrile]",495,
50,,"O=C(N1N=CCC1c1cc(F)cc(F)c1)C12CC(Cn3cc(F)c4ncc(F)cc43)(C1)C2 (centres unmarked) [Example 161, (3-((3,6-difluoro-1H-pyrrolo-[3,2-b]pyridin-1-yl)methyl)-bicyclo[1.1.1]pentan-1-yl)(5-(3,5-difluorophenyl)-4,5-dihydro-1H-pyrazol-1-yl)methanone]",157,
46,,"CN(CC12CC(C(=O)N3N=CCC3c3cc(F)cc(F)c3)(C1)C2)c1cc(C#N)ncn1 (centres unmarked) [Example 162, 6-(((3-(5-(3,5-difluorophenyl)-4,5-dihydro-1H-pyrazole-1-carbonyl)-bicyclo[1.1.1]pentan-1-yl)methyl)(methyl)amino)pyrimidine-4-carbonitrile]",210,
46,,"O=C(N1N=CCC1c1cc(F)cc(F)c1)C12CC(Cn3cc4ccc(F)cc4n3)(C1)C2 (centres unmarked) [Example 62, (5-(3,5-difluorophenyl)-4,5-dihydro-1H-pyrazol-1-yl)(3-((6-fluoro-2H-indazol-2-yl)methyl)bicyclo[1.1.1]-pentan-1-yl)methanone]",133,
44,,"N#Cc1cccc2nn(CC34CC(C(=O)N5N=CCC5c5cc(F)cc(F)c5)(C3)C4)cc12 (centres unmarked) [Example 60, 2-((3-(5-(3,5-difluorophenyl)-4,5-dihydro-1H-pyrazole-1-carbonyl)bicyclo[1.1.1]-pentan-1-yl)methyl)-2H-indazole-4-carbonitrile]",178,
38,,"Cc1cnn(CC23CC(C(=O)N4N=CCC4c4cc(F)cc(F)c4)(C2)C3)c1C#N (centres unmarked) [Example 156, 1-((3-(5-(3,5-difluorophenyl)-4,5-dihydro-1H-pyrazole-1-carbonyl)bicyclo[1.1.1]-pentan-1-yl)methyl)-4-methyl-1H-pyrazole-5-carbonitrile]",159,
28,,"NC(=O)c1cc(OCC23CC(C(=O)N4N=CCC4c4cc(F)cc(F)c4)(C2)C3)ncn1 (centres unmarked) [Example 8, 6-((3-(5-(3,5-Difluorophenyl)-4,5-dihydro-1H-pyrazole-1-carbonyl)bicyclo[1.1.1]pentan-1-yl)methoxy)pyrimidine-4-carboxamide]",51,
26,,"O=C(N1N=CCC1c1cc(F)cc(F)c1)C12CC(COc3cc(F)ccc3F)(C1)C2 (centres unmarked) [Example 338, (3-((2,5-difluorophenoxy)-methyl)bicyclo[1.1.1]pentan-1-yl)(5-(3,5-difluorophenyl)-4,5-dihydro-1H-pyrazol-1-yl)methanone]",165,
22,,"N#Cc1ccc2c(cnn2CC23CC(C(=O)N4N=CCC4c4cnccn4)(C2)C3)c1 (centres unmarked) [Example 51, 1-((3-(5-(pyrazin-2-yl)-4,5-dihydro-1H-pyrazole-1-carbonyl)bicyclo[1.1.1]pentan-1-yl)methyl)-1H-indazole-5-carbonitrile]",40,
20,,"O=C(N1N=CCC1c1cc(F)cc(F)c1)C12CC(Cn3ncc4cncc(Cl)c43)(C1)C2 (centres unmarked) [Example 68, (3-((7-chloro-1H-pyrazolo-[4,3-c]pyridin-1-yl)methyl)-bicyclo[1.1.1]pentan-1-yl)(5-(3,5-difluorophenyl)-4,5-dihydro-1H-pyrazol-1-yl)methanone]",34,
20,,"O=C(N1N=CCC1c1cc(F)cc(F)c1)C12CC(CCl)(C1)C2 (centres unmarked) [Example 11, (3-(Chloromethyl)bicyclo[1.1.1]pentan-1-yl)(5-(3,5-difluorophenyl)-4,5-dihydro-1H-pyrazol-1-yl)methanone]",18,
20,,"O=C(N1N=CCC1c1cc(F)cc(F)c1)C12CC(Cn3ccc4cncnc43)(C1)C2 (centres unmarked) [Example 136, (3-((7H-pyrrolo[2,3-d]-pyrimidin-7-yl)methyl)-bicyclo[1.1.1]pentan-1-yl)(5-(3,5-difluorophenyl)-4,5-dihydro-1H-pyrazol-1-yl)-methanone]",58,
11,,"O=C(N1N=CCC1c1cc(F)cc(F)c1)C12CC(Cn3ncc4c(F)cccc43)(C1)C2 (centres unmarked) [Example 22, (5-(3,5-Difluorophenyl)-4,5-dihydro-1H-pyrazol-1-yl)(3-((4-fluoro-1H-indazol-1-yl)methyl)bicyclo[1.1.1]pentan-1-yl)methanone]",5,
